Here are results for 20 compounds from patent US20250320224A1 (DOMAIN THERAPEUTICS, priority 2022, published 2025).

Counter-ions that a name gives are not always drawn.

This experiment has as its target T1, human PAR-2 (hPAR-2) receptor (Homo sapiens, UniProt P55085).
T1 construct: expressed in HEK-293 cells in an endogenous manner; endogenous in cells; host or cells: HEK-293
T1 sequence (P55085 26-397): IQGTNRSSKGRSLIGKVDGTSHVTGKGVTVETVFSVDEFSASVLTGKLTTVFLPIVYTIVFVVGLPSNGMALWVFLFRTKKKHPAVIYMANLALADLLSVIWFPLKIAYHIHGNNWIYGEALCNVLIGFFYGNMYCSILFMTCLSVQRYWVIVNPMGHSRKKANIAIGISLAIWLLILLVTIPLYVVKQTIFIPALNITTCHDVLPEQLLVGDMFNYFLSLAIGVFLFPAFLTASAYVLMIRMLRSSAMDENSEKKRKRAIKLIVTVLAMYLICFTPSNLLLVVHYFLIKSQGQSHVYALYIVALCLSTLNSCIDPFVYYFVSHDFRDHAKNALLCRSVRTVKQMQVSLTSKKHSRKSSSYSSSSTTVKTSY
The experiment in a line: In vitro human PAR-2 functional antagonist activity using calcium assays. In kind it is cell-based. To be noted: hPAR-2 endogenously expressed in HEK-293 cells; stimulated by 2-Furoyl-LIGRLO-NH2 peptide; Fluo4AM intracellular calcium, FLIPR Tetra. As for the experimental part:
Example 283: In Vitro Human PAR-2 Functional Antagonist Activity Using Calcium Assays
Examples of the present invention were tested successively for their agonist and antagonist activities on human PAR-2 (hPAR-2) receptor expressed in HEK-293 cells in an endogenous manner. Compounds exert agonist activity if, by themselves in absence of the 2-Furoyl-LIGRLO-NH2 peptide (selective hPAR-2 agonist), they activate PAR-2; they exert antagonist activity if they decrease the action of the 2-Furoyl-LIGRLO-NH2 peptide on the receptor. The assay used to determine compound activity is based on calcium measurement.
Cell Culture: HEK-293 cells were maintained in Dulbecco's Modified Eagle's Medium supplemented with 10% Foetal Calf Serum, 1% Penicillin/Streptomycin at 37° C./5% CO2. Flasks for tests (F75) are seeded with 6e+06 cells 24 h before the experiment at 37° C./5% CO2.
Calcium assay: Receptor activity was detected by changes in intracellular calcium measured using the fluorescent Ca^2+ sensitive dye, Fluo4AM (Molecular Probes).
The day of the assay, medium was replaced by assay buffer (HBSS 1× (Gibco 14175-053), Hepes 20 mM, MgSO4-7H2O 1 mM, Na2CO3 3.3 mM, CaCl2—2H2O 2.6 mM, 0.5% bovine serum albumin (BSA), Probenecid 2.5 mM, 0.1 mg/mL Pluronic Acid) and complemented with 1 μM Fluo4AM and cells were incubated during 1:30 h at 37° C.
Cells were then detached, resuspended in assay buffer and seeded in 384 wells, transparent-flat bottom black walled plates (2e+04 cells per well). Plates were incubated at +22° C. for 20 min. Compounds stock solutions were prepared in 100% DMSO and dilutions in test buffer were carried out in polypropylene plates with a digital dispenser (D300e, Tecan). Compounds were added to the cells and intracellular Ca^2+ measurements were collected at the same time on FLIPR Tetra® (Molecular Devices) with specific filters (Exc: 470-495 nm/Em: 515-575 nm).
Agonist and antagonist activities of compounds were consecutively evaluated on the same cell plate. Agonist activity was first measured after 10 min incubation with the compound alone. Then, cells were stimulated by an […] of the 2-Furoyl-LIGRLO-NH2 peptide and fluorescence was recorded for an additional 5 min. EC50 of the 2-Furoyl-LIGRLO-NH2 peptide was the concentration giving 80% of the maximal 2-Furoyl-LIGRLO-NH2 response. Agonist activities are evaluated in comparison to basal signals evoked by assay buffer or maximal 2-Furoyl-LIGRLO-NH2 response. […] Antagonist activities are evaluated in comparison to basal signals evoked by assay buffer or EC50 of 2-Furoyl-LIGRLO-NH2 alone.
In the case of `Cc1cc(N2CCN(C(=O)c3ccc4c(n3)C3(CN4c4ccc(Cl)c(F)c4)CC(C)(C)C3)C(C)(C)C2)nc(C)c1C(=O)O` [Example 215, 6-(4-(1′-(4-chloro-3-fluorophenyl)-3,3-dimethyl-1′,2′-dihydrospiro[cyclobutane-1,3′-pyrrolo[3,2-b]pyridine]-5′-carbonyl)-3,3-dimethylpiperazin-1-yl)-2,4-dimethylnicotinic acid], the IC50 is under 500 nM.
As to `COc1cc2c(nc1C(=O)N1CCN(c3ccc(CC(=O)O)cn3)CC1(C)C)C(C)(C)CN2c1ccc(Cl)c(F)c1` [Example 255, 2-(6-(4-(1-(4-chloro-3-fluorophenyl)-6-methoxy-3,3-dimethyl-2,3-dihydro-1H-pyrrolo[3,2-b]pyridine-5-carbonyl)-3,3-dimethylpiperazin-1-yl)pyridin-3-yl)acetic acid], the IC50 was over 10000 nM.
Take `Cc1ccc(N2CCN(C(=O)c3ccc4c(n3)C(C)(C)CN4c3ccc(Cl)c(F)c3)C(C)(C)C2)nc1C(=O)O` [Example 140, 6-(4-(1-(4-chloro-3-fluorophenyl)-3,3-dimethyl-2,3-dihydro-1H-pyrrolo[3,2-b]pyridine-5-carbonyl)-3,3-dimethylpiperazin-1-yl)-3-methylpicolinic acid]: the IC50 is under 500 nM.
Under `Cc1cc(N2CCN(C(=O)c3ccc4c(n3)C(C)(C)CN4c3ccc(F)c(F)c3)C(C)(C)C2)nc(C)c1C(=O)O` [Example 14, 6-(4-(1-(3,4-difluorophenyl)-3,3-dimethyl-2,3-dihydro-1H-pyrrolo[3,2-b]pyridine-5-carbonyl)-3,3-dimethylpiperazin-1-yl)-2,4-dimethylnicotinic acid] stands under 500 nM.
Under `COC1CC2(C1)CN(c1ccc(Cl)c(F)c1)c1ccc(C(=O)N3CCN(c4cc(C)c(C(=O)O)c(C)n4)CC3(C)C)nc12` (single isomer, unassigned) [Example 199, 6-(4-(1′-(4-chloro-3-fluorophenyl)-3-methoxy-1′,2′-dihydrospiro[cyclobutane-1,3′-pyrrolo[3,2-b]pyridine]-5′-carbonyl)-3,3-dimethylpiperazin-1-yl)-2,4-dimethylnicotinic acid] stands under 500 nM; under `CC1(C)CN(c2ccc(CC(=O)O)cn2)CCN1C(=O)c1ccc2c(n1)C1(CCC1)CN2c1ccc(Cl)c(F)c1` [Example 119, 2-(6-(4-(1′-(4-chloro-3-fluorophenyl)-1′,2′-dihydrospiro[cyclobutane-1,3′-pyrrolo[3,2-b]pyridine]-5′-carbonyl)-3,3-dimethylpiperazin-1-yl)pyridin-3-yl)acetic acid], under 500 nM.
Under `CC1(C)CN(c2ccc(F)cc2)c2ccc(C(=O)N3CCNC(=O)C3(C)C)nc21` [Example 15, 4-(1-(4-fluorophenyl)-3,3-dimethyl-2,3-dihydro-1H-pyrrolo[3,2-b]pyridine-5-carbonyl)-3,3-dimethylpiperazin-2-one] stands under 500 nM; under `CC1(C)C(=O)NCCN1C(=O)c1ccc2c(n1)C1(CCCC1)CN2c1ccc(Cl)c(F)c1` [Example 3, 4-(1′-(4-chloro-3-fluorophenyl)-1′,2′-dihydrospiro[cyclopentane-1,3′-pyrrolo[3,2-b]pyridine]-5′-carbonyl)-3,3-dimethylpiperazin-2-one], under 500 nM.
With `CC1(C)C(=O)NCCN1C(=O)c1ccc2c(n1)[C@@]1(C)CCO[C@H]1N2c1ccc(Cl)c(F)c1` (single isomer, unassigned) [Example 62], the IC50 was under 500 nM.
Under `Cc1cc(N2CCN(C(=O)c3cnc4c(n3)C(C)(C)CN4C3CCCC3)C(C)(C)C2)nc(C)c1C(=O)O` [Example 183, 6-(4-(5-cyclopentyl-7,7-dimethyl-6,7-dihydro-5H-pyrrolo[2,3-b]pyrazine-2-carbonyl)-3,3-dimethylpiperazin-1-yl)-2,4-dimethylnicotinic acid] stands over 10000 nM; under `CC(C)(CO)NC(=O)c1ccc2c(n1)C(C)(C)CN2c1ccc(Cl)c(F)c1` [Example 51, 1-(4-chloro-3-fluorophenyl)-N-(1-hydroxy-2-methylpropan-2-yl)-3,3-dimethyl-2,3-dihydro-1H-pyrrolo[3,2-b]pyridine-5-carboxamide], 500 to 10000 nM; under `CCOC(=O)CCCC(=O)N1CCN(C(=O)c2ccc3c(n2)C(C)(C)CN3c2ccc(Cl)c(F)c2)C(C)(C)C1` [Example 27, ethyl 5-(4-(1-(4-chloro-3-fluorophenyl)-3,3-dimethyl-2,3-dihydro-1H-pyrrolo[3,2-b]pyridine-5-carbonyl)-3,3-dimethylpiperazin-1-yl)-5-oxopentanoate], under 500 nM.
Consider `CCN1CCN(C(=O)c2ccc3c(n2)C(C)(C)CN3c2ccc(Cl)c(F)c2)C(C)(C)C1=O` [Example 19, 4-(1-(4-chloro-3-fluorophenyl)-3,3-dimethyl-2,3-dihydro-1H-pyrrolo[3,2-b]pyridine-5-carbonyl)-1-ethyl-3,3-dimethylpiperazin-2-one], for which the IC50 was under 500 nM.
Consider `Cc1cc(N2CCN(C(=O)c3cnc4c(n3)C3(CN4c4ccc(Cl)c(F)c4)CC(C)(C)C3)C(C)(C)C2)nc(C)c1C(=O)O` [Example 247, 6-(4-(5′-(4-chloro-3-fluorophenyl)-3,3-dimethyl-5′,6′-dihydrospiro[cyclobutane-1,7′-pyrrolo[2,3-b]pyrazine]-2′-carbonyl)-3,3-dimethylpiperazin-1-yl)-2,4-dimethylnicotinic acid], for which the IC50 was under 500 nM.
`CC1(C)CN(c2ccc(Cl)c(F)c2)c2ccc(C(=O)N3CCN(c4cc(CC(=O)O)ccn4)CC3(C)C)nc21` [Example 115, 2-(2-(4-(1-(4-chloro-3-fluorophenyl)-3,3-dimethyl-2,3-dihydro-1H-pyrrolo[3,2-b]pyridine-5-carbonyl)-3,3-dimethylpiperazin-1-yl)pyridin-4-yl)acetic acid]: the IC50 is under 500 nM.
As for `CC(=O)N1CCN(C(=O)c2ccc3c(n2)C(C)(C)CN3c2ccc(Cl)c(F)c2)C(C)(C)C1` [Example 24, 1-(4-(1-(4-chloro-3-fluorophenyl)-3,3-dimethyl-2,3-dihydro-1H-pyrrolo[3,2-b]pyridine-5-carbonyl)-3,3-dimethylpiperazin-1-yl)ethan-1-one], the IC50 lay within 500 to 10000 nM.
For `CN(C)C(=O)c1csc(N2CCN(C(=O)c3ccc4c(n3)C(C)(C)CN4c3ccc(Cl)c(F)c3)C(C)(C)C2)n1` [Example 80, 2-(4-(1-(4-chloro-3-fluorophenyl)-3,3-dimethyl-2,3-dihydro-1H-pyrrolo[3,2-b]pyridine-5-carbonyl)-3,3-dimethylpiperazin-1-yl)-N,N-dimethylthiazole-4-carboxamide], the IC50 is under 500 nM.
`CC1CC2(C1)CN(c1ccc(Cl)c(F)c1)c1ccc(C(=O)N3CCN(c4ccc(CC(=O)O)cn4)CC3(C)C)nc12` (centres unmarked) [Example 154, 2-(6-(4-(1′-(4-chloro-3-fluorophenyl)-3-methyl-1′,2′-dihydrospiro[cyclobutane-1,3′-pyrrolo[3,2-b]pyridine]-5′-carbonyl)-3,3-dimethylpiperazin-1-yl)pyridin-3-yl)acetic acid]: the IC50 was under 500 nM.
Under `Cc1nc(N2CCN(C(=O)c3ccc4c(n3)C(C)(C)CN4c3ccc(Cl)c(F)c3)C(C)(C)C2)ncc1C(=O)O` [Example 39, 2-(4-(1-(4-chloro-3-fluorophenyl)-3,3-dimethyl-2,3-dihydro-1H-pyrrolo[3,2-b]pyridine-5-carbonyl)-3,3-dimethylpiperazin-1-yl)-4-methylpyrimidine-5-carboxylic acid hydrochloride] stands under 500 nM; under `Cc1ccc(N2CC(C)(C)c3nc(C(=O)N4CCN(c5ccc(CC(=O)O)cn5)CC4(C)C)cnc32)cc1Cl` [Example 251, 2-(6-(4-(5-(3-chloro-4-methylphenyl)-7,7-dimethyl-6,7-dihydro-5H-pyrrolo[2,3-b]pyrazine-2-carbonyl)-3,3-dimethylpiperazin-1-yl)pyridin-3-yl)acetic acid], under 500 nM.
